These are literature values, as cited in patent US5320960A, “Method of preparing solution enriched in xylanase using low molecular weight alcohol, organic salt and inorganic salt” (Genencor International, Inc., priority 1992, dated 1994).

In general, Ki refers to a dissociation constant, usually derived from enzyme kinetics or from competition with a known ligand.

The data set concerns the target β-Glucosidase (BG) components of fungal cellulase. The conditions noted are these: competitive inhibition; read-out: Ki (glucose).

Structures are written as SMILES.

For the compound `OC[C@H]1OC(O)[C@H](O)[C@@H](O)[C@@H]1O` (stereo partly shown) [glucose], the Ki was approximately 1000 µM.
